# Test results published in PubChem BioAssay (NCI).
#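 GI50 = concentration required for 50% inhibition of growth. At the TGI there is no net growth.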
# Assays:
# Experiment in all cases: DTP human tumour cell line panel, 384-well format
# [1] = tested on: MALME-3M melanoma
# [2] = tested on: HCT-15 colon
# [3] = tested on: SF-295 CNS
# [4] = tested on: OVCAR-5 ovarian
# [5] = tested on: TK-10 renal
# [6] = tested on: NCI-H23 lung
# [7] = tested on: NCI-H460 NSCLC
# [8] = tested on: MDA-MB-231 breast
# [9] = tested on: NCI-H226 lung
# [10] = tested on: U251 glioblastoma
# [11] = tested on: UACC-257 melanoma
# [12] = tested on: SF-539 CNS
# [13] = tested on: RPMI-8226 leukemia
# [14] = tested on: CAKI-1 renal
# [15] = tested on: NCI-H522 lung
# [16] = tested on: HCT-116 colon
# [17] = tested on: SF-268 CNS
# [18] = tested on: MDA-MB-468 breast
# [19] = tested on: HOP-62 NSCLC
# [20] = tested on: RXF 393 renal
# [21] = tested on: SNB-19 CNS
# [22] = tested on: MCF7 breast
# [23] = tested on: K-562 leukemia
# [24] = tested on: SNB-75 CNS
# [25] = tested on: MDA-MB-435 melanoma
# [26] = tested on: BT-549 breast
# [27] = tested on: DU-145 prostate
# [28] = tested on: PC-3 prostate
# [29] = tested on: SR leukemia
# [30] = tested on: OVCAR-3 ovarian
# [31] = tested on: SW-620 colon
# [32] = tested on: SK-OV-3 ovarian
# [33] = tested on: HT29 colon
# [34] = tested on: SK-MEL-5 melanoma
# [35] = tested on: CCRF-CEM leukemia
# [36] = tested on: T-47D breast
# [37] = tested on: HL-60(TB) leukemia
# [38] = tested on: IGROV1 ovarian
# [39] = tested on: HOP-92 NSCLC
# [40] = tested on: OVCAR-4 ovarian
# [41] = tested on: COLO 205 colon
# [42] = tested on: EKVX NSCLC
# [43] = tested on: SN12C renal
# [44] = tested on: NCI-H322M lung
# [45] = tested on: OVCAR-8 ovarian
# [46] = tested on: HS 578T breast
# [47] = tested on: M14 melanoma
# [48] = tested on: SK-MEL-28 melanoma
# [49] = tested on: HCC-2998 colon
# [50] = tested on: NCI/ADR-RES ovarian
# [51] = tested on: A498 renal
# [52] = tested on: UO-31 renal
# [53] = tested on: KM12 colon
# [54] = tested on: ACHN renal
# [55] = tested on: 786-0 renal
# [56] = tested on: LOX IMVI melanoma
# [57] = tested on: A549 NSCLC
# [58] = tested on: MOLT-4 leukemia
# [59] = tested on: UACC-62 melanoma
compound,measurement,setting,value
Cc1noc(C)c1-c1ccc2[nH]c(=O)n3c2c1OC[C@@H]3c1ccccn1,GI50,[1],0.398 µM
same,TGI,[1],32.3 µM
same,GI50,[2],0.24 µM
same,TGI,[2],12 µM
same,GI50,[3],0.144 µM
same,TGI,[3],41.8 µM
same,GI50,[4],0.529 µM
same,TGI,[4],> 100 µM
same,GI50,[5],0.265 µM
same,TGI,[5],23.1 µM
same,GI50,[6],0.483 µM
same,TGI,[6],> 100 µM
same,GI50,[7],2.19 µM
same,TGI,[7],> 100 µM
same,GI50,[8],0.605 µM
same,TGI,[8],> 100 µM
same,GI50,[9],1.43 µM
same,TGI,[9],> 100 µM
same,GI50,[10],2.56 µM
same,TGI,[10],> 100 µM
same,GI50,[11],0.925 µM
same,TGI,[11],> 100 µM
same,GI50,[12],0.449 µM
same,TGI,[12],8.79 µM
same,GI50,[13],0.133 µM
same,TGI,[13],0.533 µM
same,GI50,[14],0.243 µM
same,TGI,[14],> 100 µM
same,GI50,[15],0.0766 µM
same,TGI,[15],4.8 µM
same,GI50,[16],0.501 µM
same,TGI,[16],> 100 µM
same,GI50,[17],3.01 µM
same,TGI,[17],> 100 µM
same,GI50,[18],0.241 µM
same,TGI,[18],8.12 µM
same,GI50,[19],0.304 µM
same,TGI,[19],62.2 µM
same,GI50,[20],0.483 µM
same,TGI,[20],11 µM
same,GI50,[21],1.87 µM
same,TGI,[21],> 100 µM
same,GI50,[22],0.125 µM
same,TGI,[22],> 100 µM
same,GI50,[23],0.436 µM
same,TGI,[23],> 100 µM
same,GI50,[24],1.27 µM
same,TGI,[24],> 100 µM
same,GI50,[25],13.7 µM
same,TGI,[25],> 100 µM
same,GI50,[26],0.293 µM
same,TGI,[26],25.2 µM
same,GI50,[27],14.2 µM
same,TGI,[27],> 100 µM
same,GI50,[28],0.245 µM
same,TGI,[28],> 100 µM
same,GI50,[29],0.0523 µM
same,TGI,[29],2.04 µM
same,GI50,[30],0.227 µM
same,TGI,[30],> 100 µM
same,GI50,[31],> 100 µM
same,TGI,[31],> 100 µM
same,GI50,[32],0.244 µM
same,TGI,[32],21.3 µM
same,GI50,[33],0.371 µM
same,TGI,[33],> 100 µM
same,GI50,[34],0.198 µM
same,TGI,[34],9.84 µM
same,GI50,[35],0.584 µM
same,TGI,[35],> 100 µM
same,GI50,[36],0.318 µM
same,TGI,[36],47.8 µM
same,GI50,[37],0.0556 µM
same,TGI,[37],0.17 µM
same,GI50,[38],0.532 µM
same,TGI,[38],53 µM
same,GI50,[39],0.241 µM
same,TGI,[39],> 100 µM
same,GI50,[40],0.107 µM
same,TGI,[40],0.495 µM
same,GI50,[41],0.527 µM
same,TGI,[41],> 100 µM
same,GI50,[42],> 100 µM
same,TGI,[42],> 100 µM
same,GI50,[43],3.69 µM
same,TGI,[43],> 100 µM
same,GI50,[44],0.591 µM
same,TGI,[44],> 100 µM
same,GI50,[45],0.473 µM
same,TGI,[45],> 100 µM
same,GI50,[46],0.152 µM
same,TGI,[46],1.6 µM
same,GI50,[47],0.72 µM
same,TGI,[47],> 100 µM
same,GI50,[48],0.813 µM
same,TGI,[48],> 100 µM
same,GI50,[49],0.127 µM
same,TGI,[49],2.11 µM
same,GI50,[50],0.653 µM
same,TGI,[50],18.5 µM
same,GI50,[51],0.42 µM
same,TGI,[51],> 100 µM
same,GI50,[52],0.722 µM
same,TGI,[52],> 100 µM
same,GI50,[53],1.36 µM
same,TGI,[53],> 100 µM
same,GI50,[54],1.22 µM
same,TGI,[54],> 100 µM
same,GI50,[55],0.749 µM
same,TGI,[55],> 100 µM
same,GI50,[56],0.277 µM
same,TGI,[56],1.04 µM
same,GI50,[57],0.656 µM
same,TGI,[57],> 100 µM
same,GI50,[58],0.421 µM
same,TGI,[58],11.9 µM
C=CC(=O)N1CCN(c2ncnc3c(F)c(-c4c(O)cccc4F)c(Cl)cc23)CC1,GI50,[1],3.58 µM
same,TGI,[1],9.59 µM
same,GI50,[2],2.5 µM
same,TGI,[2],6.08 µM
same,GI50,[3],2.97 µM
same,TGI,[3],8.83 µM
same,GI50,[4],3.66 µM
same,TGI,[4],11.9 µM
same,GI50,[5],8.84 µM
same,TGI,[5],30.7 µM
same,GI50,[6],0.0694 µM
same,TGI,[6],0.94 µM
same,GI50,[7],2.78 µM
same,TGI,[7],7.79 µM
same,GI50,[8],5.17 µM
same,TGI,[8],18.5 µM
same,GI50,[9],2.39 µM
same,TGI,[9],7.65 µM
same,GI50,[11],3.65 µM
same,TGI,[11],9.18 µM
same,GI50,[12],2.4 µM
same,TGI,[12],5.02 µM
same,GI50,[13],1.6 µM
same,TGI,[13],3 µM
same,GI50,[14],3.07 µM
same,TGI,[14],12.9 µM
same,GI50,[15],3.1 µM
same,TGI,[15],8.43 µM
same,GI50,[17],2.09 µM
same,TGI,[17],5.38 µM
same,GI50,[18],2.34 µM
same,TGI,[18],4.63 µM
same,GI50,[19],1.21 µM
same,TGI,[19],4.8 µM
same,GI50,[20],1.91 µM
same,TGI,[20],4.03 µM
same,GI50,[21],4.08 µM
same,TGI,[21],14.9 µM
same,GI50,[22],2.95 µM
same,TGI,[22],9.01 µM
same,GI50,[23],5.53 µM
same,TGI,[23],18.1 µM
same,GI50,[24],3.41 µM
same,TGI,[24],16.7 µM
same,GI50,[25],3.91 µM
same,TGI,[25],13.9 µM
same,GI50,[26],1.73 µM
same,TGI,[26],4.14 µM
same,GI50,[27],3.5 µM
same,TGI,[27],12.5 µM
same,GI50,[28],2.64 µM
same,TGI,[28],8.13 µM
same,GI50,[29],1 µM
same,TGI,[29],2.18 µM
same,GI50,[30],1.83 µM
same,TGI,[30],3.9 µM
same,GI50,[31],3.78 µM
same,TGI,[31],11.3 µM
same,GI50,[32],4.14 µM
same,TGI,[32],16.1 µM
same,GI50,[33],2.97 µM
same,TGI,[33],8.72 µM
same,GI50,[34],2.39 µM
same,TGI,[34],5.66 µM
same,GI50,[35],1.83 µM
same,TGI,[35],3.34 µM
same,GI50,[36],6.31 µM
same,TGI,[36],18.4 µM
same,GI50,[37],1.68 µM
same,TGI,[37],3.08 µM
same,GI50,[38],3.5 µM
same,TGI,[38],11.8 µM
same,GI50,[39],4.73 µM
same,TGI,[39],16.8 µM
same,GI50,[40],5.97 µM
same,TGI,[40],18.2 µM
same,GI50,[41],2.33 µM
same,TGI,[41],5.19 µM
same,GI50,[42],5.74 µM
same,TGI,[42],18 µM
same,GI50,[43],4.48 µM
same,TGI,[43],15.4 µM
same,GI50,[44],3.22 µM
same,TGI,[44],10.3 µM
same,GI50,[45],2.46 µM
same,TGI,[45],6.4 µM
same,GI50,[46],1.71 µM
same,TGI,[46],3.87 µM
same,GI50,[47],1.98 µM
same,TGI,[47],4.68 µM
same,GI50,[48],3.17 µM
same,TGI,[48],13.7 µM
same,GI50,[49],2.27 µM
same,TGI,[49],4.32 µM
same,GI50,[59],1.59 µM
same,TGI,[59],4.76 µM
same,GI50,[50],14 µM
same,TGI,[50],28.3 µM
same,GI50,[51],2.05 µM
same,TGI,[51],6.37 µM
same,GI50,[52],3.58 µM
same,TGI,[52],12.5 µM
same,GI50,[53],2.92 µM
same,TGI,[53],9.85 µM
same,GI50,[54],2.27 µM
same,TGI,[54],5.89 µM
same,GI50,[55],3.34 µM
same,TGI,[55],12.4 µM
same,GI50,[56],2.08 µM
same,TGI,[56],5.21 µM
same,GI50,[57],2.36 µM
same,TGI,[57],5.74 µM
same,GI50,[58],2.08 µM
same,TGI,[58],3.62 µM
